Results published in EP0429987B1, “5,11-Dihydro-6H-dipyrido[3,2-b:2',3'-e] [1,4]diazepines and their use in the prevention or treatment of HIV infection” (priority 1989, dated 1991).

Experiments:
[1] = MTT Assay for Cellular Cytotoxicity; conditions: human, h9 cells
Experimental: In order to roughly assess the cytotoxicity of the compounds provided by the invention, several such compounds were tested in the MTT Cellular Cytotoxicity Assay described below.
The MTT [3-(4,5-dimethylthiazol-2-yl)-2,5 diphenyl tetrazolium bromide) assay is based on cleavage of tetrazolium bromide by metabolically active cells, resulting in a highly quantitative blue color. This assay has been previously described (1) but has been optimized for the purposes of the testing reported herein.
The H9 cell line (2), an established human lymphoma suspension cell line grown in RPMI 1640 supplemented with 10% fetal bovine serum, is used as the target cell line in the assay. Cells (100 µl) are plated in microtest plate wells at a concentration of 10^5 cells per ml in the presence of varying concentrations of inhibitor. The cells are incubated at 37°C in a humidified CO2 incubator. Five days later, 20µl of MTT (5mg/ml in RPMI 1640, sonicated, 0.2 micron filtered, and stored at 4°C) is added to each well. After 4 hours additional incubation at 37°C, 60µl of Triton-X is added to each well and thoroughly mixed to aid the solubilization of the crystals. Absolute ethanol (5µl) is added to each well and the resulting mixture is incubated for 30 minutes at 60°C and immediately read on a plate reader (Dynatech) at a wavelength of 570nm.
Data from this assay are used to generate a nonlinear regression analysis which yields an EC50.

[2] = system: HTLV-IIIB strain of HIV-1; test: Human T-Cell Culture Assay: inhibition of syncytia formation in c8166 cells; type: cell-based; conditions: Human immunodeficiency virus 1, IIIB, 96 h, four days after virus challenge
Experimental: In order to confirm that compounds which are active in the RT Assay also have the ability to inhibit HIV replication in a living system, compounds according to the invention were also tested in the human T-Cell Culture Assay described below.
Assay Theory: Formation of syncytia is a feature of in vitro cultures of CD4+ T-cells infected with HIV-1. In this assay, T-cells are treated with a putative replication inhibiting compound and then infected with HIV-1. After incubation, the culture is checked for the formation of syncytia. The absence or reduction in the number of syncytia is used as a measure of the test compound's ability to inhibit HIV replication.
Assay Method: The target cells, designated c8166, are a sub-clone of human lymphoma cells of T-cell origin and are established at an initial density of 5x10^4 per 100 ul in RPMI 1640 (+ 10% fetal bovine serum) culture medium in 96 well flat bottom plates. A selected amount of test compound, dissolved in DMSO, is included. After 24 hours, 50-100 TCID50's (the dose that results in induced effect in 50% of test cultures) of the HTLV-IIIB strain of HIV-1 (2) are inoculated into each culture. Control cultures receive compound or virus only. Four days after virus challenge, cultures are visually examined for the frequency and distribution of virus-induced giant cell syncytia. The percent inhibition by the test compound is determined by comparison with control values. Confirmation of the presence or absence of virus replication is accomplished by harvesting the cell free culture fluids from all experimental groups to determine the presence or absence of infectious progeny through the induction of syncytia formation in secondary human T-cell cultures after 3 days.

[3] = target: T1, HIV-1 RT (Human immunodeficiency virus type 1 group M subtype B, UniProt P03367); test: Reverse Transcriptase (RT) Assay: inhibition of RNA-dependent DNA polymerase activity; type: biochemical; conditions: for inhibition at 10 µg/mL: read-out: RT Assay % inhibition @ 10 µg/ml; for inhibition at 1.25 µM: @ 1.25µM (footnote +)
T1 construct: Reverse transcriptase enzyme from the LAV strain of Human Immunodeficiency Virus (HIV-1) (1) was isolated; made in house; host or cells: E. coli JM109, clone pBRTprtl+ in vector pIBI21 (lac promoter, IPTG induction)
From the text: Utilizing the Reverse Transcriptase (RT) Assay described below, compounds can be tested for their ability to inhibit the RNA-dependent DNA polymerase activity of HIV-1 RT.
Among the enzymes for which Human Immunodeficiency Virus (HIV-1) encodes is a reverse transcriptase (1), so-named because it transcribes a DNA copy from an RNA template. This activity can be quantitatively measured in a cell-free enzyme assay, which has been previously described (2), and is based upon the observation that reverse transcriptase is able to use a synthetic template [poly r(C) primed with oligo d(G)] to transcribe a radio-labelled, acid-precipitable DNA strand utilizing ^3H-dGTP as a substrate.
Reverse transcriptase enzyme from the LAV strain of Human Immunodeficiency Virus (HIV-1) (1) was isolated from the bacterial strain JM109 (3) expressing the DNA clone pBRTprtl+ (2) which is under the control of the lac promotor in the expression vector pIBI21 (4). An overnight culture grown in 2XYT medium (37°C, 225 rpm) (5) supplemented with 100 µg/ml ampicillin for positive selection is inoculated at a 1:40 dilution into M9 medium supplemented with 10µg/ml thiamine, 0.5% casamino acids, and 50 µg/ml ampicillin (5). The culture is incubated (37°C, 225 rpm) until it reaches an OD540 of 0.3-0.4. At that time the repressor inhibitor IPTG (isopropyl β-D-thiogalactopyranoside) is added to 0.5mM, and the mixture is incubated for 2 additional hours. Bacteria are pelleted, resuspended in a 50mM Tris, 0.6mM EDTA, 0.375M NaCl buffer and digested by the addition of lysozyme (1mg/ml) for 30 minutes on ice. The cells are lysed by the addition of 0.2% NP-40 and brought to 1M NaCl.
After removal of the insoluble debris by centrifugation, the protein is precipitated by the addition of 3 volumes of saturated aqueous ammonium sulfate. The enzyme is pelleted, resuspended in RT buffer (50mM Tris pH 7.5, 1mM EDTA, 5mM DTT, 0.1% NP-40, 0.1M NaCl, and 50% glycerol), and stored at -70°C for further use.
The 2X concentrated stock reaction mixture is aliquoted and stored at -20°C. […] This enzyme assay has been adapted to a 96 well microtiter plate system, and has been previously described (6). Tris buffer (50 mM, pH 7.4), vehicle (solvent diluted to match the compound dilution), or compounds in vehicle are dispensed into 96-well microtiter plates (10µl/well; 3 wells/ compound). The HIV-1 RT enzyme is thawed, diluted in 50mM Tris pH 7.4 so that fifteen µl of diluted enzyme contain 0.001 Unit (one unit is that amount of enzyme to transform 1 micromole of substrate per minute at 25°C), and fifteen µl are dispensed per well. Twenty µl of 0.12-0.5M EDTA are added to the first three wells of the microtiter plate. EDTA chelates the Mg^++ present and prevents reverse transcription. This group serves as background polymerization which is subtracted from all other groups. Twenty-five µl of the 2X reaction mixture are added to all wells and the assay is allowed to incubate at room temperature for 60 minutes. The assay is terminated by precipitating the DNA in each well with 50µl of 10% trichloracetic acid (TCA) (10% w/v) in sodium pyrophosphate (1% w/v). The microtiter plate is incubated for 15 minutes at 4°C and the precipitate is fixed onto #30 glass fiber paper (Schleicher & Schuell) using a Skatron semi-automatic harvester. The filters are then washed with additional TCA (5%) containing sodium pyrophosphate (1%), rinsed with aqueous ethanol (70%), dried, and transferred to scintillation vials (6). Each vial receives 2 mls of scintillation cocktail and is counted in a Beckman beta counter.
The calculation for percent inhibition is as follows: %inhibition =(CPM Mean Test Value - CPM Mean Control Value X100)/(CPM Mean Control Value) [formula]

SMILES | inhibition at 10 µg/mL [3] [%] | inhibition at 1.25 µM [3] [%] | CC50 at 120 h [1] [µM] | inhibition at 3 µg/mL [2] [%] | RT Assay % inhibition @ 10 µg/ml ([3]; @ 10 µg/ml) [%]
CCN1c2ncccc2C(=O)Nc2c(C)ccnc21 [Example 2, 5,11-Dihydro-11-ethyl-4-methyl-6H-dipyrido-[3,2-b:2',3'-e][1,4]diazepin-6-one] | 100 |  | 200 | 100 | 
Cc1ccnc2c1NC(=O)c1cccnc1N2C1CC1 [Example 3, 11-Cyclopropyl-5,11-dihydro-4-methyl-6H-dipyrido[3,2-b:2',3'-e][1,4]diazepin-6-one] |  |  | 250 | 100 | 100
CCN1c2ncccc2C(=O)Nc2c(C)cc(OC)nc21 [Example 7, 5,11-Dihydro-11-ethyl-2-methoxy-4-methyl-6H-dipyrido[3,2-b:2',3'-e][1,4]diazepin-6-one] |  | 96 | 350 | 100 | 

Second part, led by results:

inhibition at 10 µg/mL [3] [%] | inhibition at 1.25 µM [3] [%] | SMILES | CC50 at 120 h [1] [µM] | inhibition at 3 µg/mL [2] [%] | RT Assay % inhibition @ 10 µg/ml ([3]; @ 10 µg/ml) [%]
 | 91 | CCN1c2ncccc2C(=O)N(C)c2ccc(N3CCCC3)nc21 [Example 6, 5,11-Dihydro-11-ethyl-5-methyl-2-(N-pyrrolidino)-6H-dipyrido[3,2-b:2',3'-e][1,4]diazepin-6-one] | 45 | 100 | 
99 |  | CCN1c2ncccc2NC(=O)c2cccnc21 [Example 14] |  | 100 | 
100 |  | CN1C(=O)c2cccnc2N(C2CC2)c2ncccc21 [Example 47] |  | 100 | 
